Measured values reported in patent US20240190883A1, “KRAS PROTEIN DEGRADERS, PHARMACEUTICAL COMPOSITIONS THEREOF, AND THEIR THERAPEUTIC APPLICATIONS” (BioTheryX, Inc., priority 2021, published 2024).

Legend:
Assay type in all cases: cell-based
Settings in all cases: 24 h, HiBiT signal normalized to CTG signal
KRAS protein [1] = target: T1, KRAS protein (Homo sapiens, UniProt P01116); experiment: HIBIT degradation assay, HEK293 cells
T1 construct: engineered to express a Hobbit-tagged endogenous KRAS protein; endogenous in cells; host or cells: HEK293, endogenous KRAS locus engineered with a HiBiT tag
Protocol: (§1) HEK293, MIA PaCa-2, AsPc-1, SW620, and H647 cells were engineered to express a […] endogenous KRAS protein. The HEK293 and MIA PaCa-2 cells were cultured in DMEM media supplemented with 10% fetal bovine serum, streptomycin, and penicillin. The AsPc-1, SW620, and H647 were cultured in RPMI media supplemented with 10% fetal bovine serum, streptomycin, and penicillin. The cells were seeded in white walled 96-well plates at 20,000 cells/well in 100 μL culture media in duplicate plates. After incubated at 37° C. under 5% CO2 overnight, the cells were treated with DMSO (control) or a compound, followed by the addition of 100 μL culture media to each well. After the cells were incubated for 24 h at 37° C. under 5% C02, 150 μL media were removed from each well and 50 μL NANOGLO-LGBIT lytic reagent were added to each well, and 50 μL CELLTITER-GLO (CTG) reagent was added to the duplicate plate. Following a 10-minute incubation with shaking, luminescence was measured using a Perkin Elmer ENVISION multimode plate reader. HiBiT signal was normalized to CTG signal. The results are summarized in Table 3, where “A” represents a percentage degradation value of no less than 50%; “B” represents a percentage degradation value of less than 50% and no less than 25%; “C” represents a percentage degradation value of less than 25% and no less than 10%; and “D” represents a percentage degradation value of less than 10%.

KRAS protein [2] = target: T2, KRAS protein (Homo sapiens, UniProt P01116, G12C); experiment: HIBIT degradation assay, MIA PaCa-2 cells
T2 construct: engineered to express a Hobbit-tagged endogenous KRAS protein; endogenous in cells; host or cells: MIA PaCa-2, endogenous KRAS locus engineered with a HiBiT tag
Protocol: as §1

KRAS protein [3] = target: T3, KRAS protein (Homo sapiens, UniProt P01116, G12D); experiment: HIBIT degradation assay, AsPC-1 cells
T3 construct: engineered to express a Hobbit-tagged endogenous KRAS protein; endogenous in cells; host or cells: AsPC-1, endogenous KRAS locus engineered with a HiBiT tag
Protocol: as §1

T2 sequence (P01116 whole entry G12C): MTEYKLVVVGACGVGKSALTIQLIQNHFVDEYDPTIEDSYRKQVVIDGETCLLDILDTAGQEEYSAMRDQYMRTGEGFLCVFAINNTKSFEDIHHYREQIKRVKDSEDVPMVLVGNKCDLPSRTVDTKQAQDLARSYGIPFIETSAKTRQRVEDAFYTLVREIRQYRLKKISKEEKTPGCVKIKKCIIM
T3 sequence (P01116 1-188 isoform P01116-2 G12D): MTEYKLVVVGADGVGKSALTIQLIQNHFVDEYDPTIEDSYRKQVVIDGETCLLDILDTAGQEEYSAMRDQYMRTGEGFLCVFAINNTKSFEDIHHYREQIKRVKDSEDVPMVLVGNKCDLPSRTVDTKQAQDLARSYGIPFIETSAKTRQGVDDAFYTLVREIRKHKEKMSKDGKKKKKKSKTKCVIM
T1 sequence (P01116 1-188 isoform P01116-2): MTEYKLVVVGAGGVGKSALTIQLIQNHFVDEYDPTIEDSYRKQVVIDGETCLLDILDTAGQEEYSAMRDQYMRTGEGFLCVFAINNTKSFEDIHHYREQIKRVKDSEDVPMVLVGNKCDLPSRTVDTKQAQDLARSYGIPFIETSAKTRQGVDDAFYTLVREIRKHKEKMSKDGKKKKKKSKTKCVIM

Cc1nn2c(N3CCN(CCO)CC3)cc(-c3ccc(F)cc3)nc2c1-c1cccc(CCCCCN2CCN(C(=O)CNc3ccc4c(C5CCC(=O)NC5=O)nn(C)c4c3)CC2)c1 (stereo not drawn) [Compound D19, 3-(6-((2-(4-(5-(3-(5-(4-Fluorophenyl)-7-(4-(2-hydroxyethyl)piperazin-1-yl)-2-methylpyrazolo[1,5-a]pyrimidin-3-yl)phenyl)pentyl)piperazin-1-yl)-2-oxoethyl)amino)-1-methyl-1H-indazol-3-yl)piperidine-2,6-dione]
Effect on KRAS Protein Degradation, HEK293, 3 μM (KRAS protein [1]; compound at 3 μM): D (a percentage degradation value of less than 10%)
Effect on KRAS Protein Degradation, HEK293, 5 μM (KRAS protein [1]; compound at 5 μM): D (a percentage degradation value of less than 10%)
Effect on KRAS Protein Degradation, MIA PaCa-2, 3 μM (KRAS protein [2]; compound at 3 μM): D (a percentage degradation value of less than 10%)
Effect on KRAS Protein Degradation, MIA PaCa-2, 5 μM (KRAS protein [2]; compound at 5 μM): C (a percentage degradation value of less than 25% and no less than 10%)
Effect on KRAS Protein Degradation, AsPC-1, 3 μM (KRAS protein [3]; compound at 3 μM): C (a percentage degradation value of less than 25% and no less than 10%)
Effect on KRAS Protein Degradation, AsPC-1, 5 μM (KRAS protein [3]; compound at 5 μM): C (a percentage degradation value of less than 25% and no less than 10%)
